One compound from patent US11927590B2, “Methods and systems for screening therapeutic compositions for treating age-related macular degeneration” (ARIZONA BOARD OF REGENTS ON BEHALF OF THE UNIVERSITY OF …, priority 2020, dated 2024) can be followed below.

In the test the test system is retinal pigment epithelial (RPE) cells. The test can be described thus: RPE exosome release. It counts as cell-based. As to conditions: RPE cells incubated in media (DMEM) plus L-DOPA versus media alone (FIG. 3A). The source says:
Exosomes released from retinal pigment epithelial (RPE) cells can be isolated. […] Cells and cell debris are removed and exosomes are then purified. Note the present invention is not limited to this particular method of exosome isolation. In certain embodiments of the present invention, exosomes are not isolated for the measurement of levels of exosomes released from RPE cells. […] FIG. 3B illustrates GPR143 exosome release and its inhibition by L-DOPA. FIG. 4A and FIG. 4B show RPE exosome release studies in response to 30 minute treatments with 1 μM dopamine (FIG. 4A), 1 nM Dopamine 2 receptor (D2R) agonist (bromocriptine, FIG. 4B), and 1 nM Dopamine 2 receptor ([…]) antagonist (raclopride, FIG. 4B).

As for `N[C@@H](Cc1ccc(O)c(O)c1)C(=O)O` [L-DOPA], the “exosome release from RPE cells” value was “significant reduction in exosome release”.
